The subject of experiment [1] is chick chorioallantoic membrane (CAM). Description: Chick chorioallantoic membrane (CAM) angiogenesis assay. As to conditions: VEGF 20 ng, positive control, 48 hours. The class given is in vivo, chick (white Leghorn embryos).
Protocol: Fertilized 3-day old white Leghorn eggs (CWRU, Squire valley farms) were cracked, and embryos with the yolk intact were placed in 100 mm×20 mm glass bottom Petri dishes. […] CAMs implanted with discs loaded with unmodified dipeptide, HSA, control buffer or with vascular endothelial growth factor (VEGF) were used as negative and positive controls respectively. After 48 hours of incubation, India ink was injected into the vascular system for better visualization of the vessels by a stereomicroscope. Images were captured with a Panasonic CCD camera. Samples were always compared on the same CAM to avoid egg-to-egg variability. For quantitative analysis of vessel density and leakage, CAM images were batch processed using customized macros generated in Image-Pro Plus 5.0 (Media Cybernetics, Silver Spring, Md.). Briefly, a region of interest (ROI) was traced around grafted tissue in each image, each image was then cropped to its ROI, converted to grayscale, and processed using a large spectral filter to enhance the appearance of vasculature whilst omitting presence of larger vessels (determined by filter width). […]
The protein preparations were analyzed for endotoxin and determined to be free of contamination.
In experiment [2] the test system is rat cornea (limbal blood vessels). The experiment in a line: Rat corneal micropocket assay, angiogenic response to implanted pellets. It counts as in vivo, Sprague-Dawley rats. As to conditions: pellet 1 mm from limbus, CEP-HSA 1 μg, CEP-dipeptide 37 ng, dipeptide 41 ng.
Protocol: Hydron/sucralfate pellets containing unmodified or CEP modified HSA or dipeptide with or without neutralizing antibodies (monoclonal mouse anti-human VEGF, 1.5 μg, R&D systems (MAB293) or monoclonal anti-CEP antibody (Gu, X., et al. (2003) J. Biol. Chem.), 4 μg) were inserted into corneal micropockets (1 mm from the limbus) of Sprague-Dawley rats. Control mouse IgM, 4 μg (eBioscience, cat. #14-4752) and mouse IgG, 1.5 μg (Southern Biotechnology Inc., cat. #0104-01) antibodies were used in control pellets for comparison with anti-CEP and anti-VEGF antibodies respectively. Corneas were examined daily with the aid of a surgical microscope to monitor angiogenic responses to CEP modified peptide or proteins. […] A positive neovascularization response was recorded only if sustained directional in-growth of capillary sprouts and hairpin loops toward the pellet was observed. A negative response was recorded when either no growth is observed or only an occasional sprout or hairpin loop showing no evidence of sustained growth was detected. […] Angiogenic response was analyzed for peak vascular extension and total skeletal (vascular) length using Image-Pro Plus 5.0 (Media Cybernetics, Silver Spring, Md.). […] The resulting image, a single segmented object representing the overall dimensions of the vascular bed, was analyzed for maximum box-width, i.e. extent of vessel penetration. […]

The text below walks through data of patent US8137991B2, “Methods of reducing angiogenesis of age-related macular degeneration (AMD) or choroidal neovascularization by an anti-carboxyetheylpyrrole (CFP) antibody” (The Cleveland Clinic Foundation, priority 2006, dated 2012).

In the case of VEGF, the “average skeletal density of CAM vessels” value in experiment [1] is approximately 3.1.
Turning to “acetyl-Gly-Lys-O-methyl ester [dipeptide]”, the “growth of limbal blood vessels towards the pellet” value in experiment [2] is given as “did not induce this effect”.
